US8470806B2, “Perhexiline for treating chronic heart failure” (Heart Metabolics Limited, priority 2004, dated 2013)

Assays:
Serum perhexiline levels = assay type: in vivo; conditions: human
patients with CHF [1] = assay: NYHA class before and after treatment; assay type: in vivo, human
Method: 56 patients with CHF were recruited and all provided written informed consent. Entry criteria were as follows: left ventricular ejection fraction (LVEF) <40%, optimally medicated heart failure with New York Heart Association (NYHA) Class II-III symptoms. Cardiopulmonary exercise testing with respiratory gas analysis, completion of the Minnesota Living with Heart Failure Questionnaire (MLHFQ) and 2-D echocardiography were performed at baseline on all patients.

patients with CHF [2] = assay: Resting echocardiography (LVEF, volumes, long-axis PSV, E:EA ratio); assay type: in vivo, human; conditions: for Long axis function: PSV of lateral mitral valve annulus
Method: Echocardiography was performed with patients in the left lateral decubitus position using a Vingmed System V echocardiographic machine and a 2.5 MHz transducer. Images were stored digitally. Resting scans were acquired using standard echocardiographic windows for LVEF, transmitral valve Doppler, and resting tissue Doppler. […] Left ventricular volumes for calculation of LVEF were obtained using biplane echocardiography and the modified Simpson's formula. Volumes were averaged over 3 beats. In addition, on-line tissue Doppler peak systolic velocity (PSV) of the lateral mitral valve annulus was obtained as a reflection of left ventricular long-axis function. In theory, improving metabolic efficiency would also lead to an improvement in diastolic function of the left ventricle as energy is also required for cardiac relaxation. The ratio of peak E wave from transmitral valve Doppler vs. the E wave from tissue Doppler of the lateral mitral valve annulus (E:EA ratio) is a sensitive indicator of left ventricular end diastolic pressure (19). […] The primary end-point for this study was pre-defined as VO2 max with the following secondary endpoints: MLHFQ score, LVEF, E:EA ratio, resting, low dose and high dose mean PSV during stress echocardiography and PCr t½. Therapy randomization of the ischemic and non-ischemic groups occurred separately but with similar protocols in order to allow for pre-hoc analysis of the primary endpoint in each group. […] Data were analyzed with SPSS 11.5 for Windows® and expressed as mean±standard error of mean. ANCOVA using baseline values as covariates was performed to test for significance of differences seen in the perhexiline vs. placebo groups following treatment.

patients with CHF [3] = assay: Cardiopulmonary exercise test (treadmill, Weber protocol, respiratory gas analysis); assay type: in vivo, human; conditions: for VO2max: mean ± SEM
From the text: An embodiment of the invention will now be described by way of example only wherein a double-blind, randomised, placebo-controlled study was undertaken in order to investigate the effects of perhexiline on chronic heart failure. 56 patients with CHF were recruited and all provided written informed consent. Entry criteria were as follows: left ventricular ejection fraction (LVEF) <40%, optimally medicated heart failure with New York Heart Association (NYHA) Class II-III symptoms. Cardiopulmonary exercise testing with respiratory gas analysis, completion of the Minnesota Living with Heart Failure Questionnaire (MLHFQ) and 2-D echocardiography were performed at baseline on all patients. Incremental exercise testing with assessment of respiratory gas exchange was performed on a treadmill using the Weber protocol. Breath by breath respiratory gases were measured during exercise using a Pulmolab EX670 system mass spectrometer which was calibrated before every study. Raw data were averaged to 30 second intervals and oxygen consumption during peak exercise was obtained (VO2 max; ml/kg/min). Electrocardiograms and blood pressure were monitored throughout. Exercise was terminated at the subject's request due to fatigue or breathlessness. […] The primary end-point for this study was pre-defined as VO2 max with the following secondary endpoints: MLHFQ score, LVEF, E:EA ratio, resting, low dose and high dose mean PSV during stress echocardiography and PCr t½. Therapy randomization of the ischemic and non-ischemic groups occurred separately but with similar protocols in order to allow for pre-hoc analysis of the primary endpoint in each group. […] Data were analyzed with SPSS 11.5 for Windows® and expressed as mean±standard error of mean. ANCOVA using baseline values as covariates was performed to test for significance of differences seen in the perhexiline vs. placebo groups following treatment.

[4] = test system: patients with CHF (ischemic group); assay: Tissue Doppler / dobutamine stress echocardiography, ischemic group; assay type: in vivo, human; parameters: Mean PSV (15 segments): unit not given beside the values
Method: Tissue Doppler assessment of the left ventricle was performed at rest and analysed off-line using Echopac software in order to determine regional myocardial PSV from 15 left ventricular segments described in detail elsewhere (20). These segments were selected to include all areas supplied by the three major coronary arteries and for the greatest reproducibility for acquisition of PSV (21). (See FIG. 4) Following resting echocardiography dobutamine infusion was commenced via a syringe driver and incremented at 3 minute intervals from 5 mcg/kg/min to 10, 20, 30 and 40 mcg/kg/min. Digital loops of 15 views outlined above were stored at 90 seconds of each stage. Up to 1 mg of atropine was given if the hemodynamic response was submaximal. Electrocardiograms and blood pressure were monitored at each stage. End-points for termination of the test were attainment of ≧85% of the target heart rate, evidence of ischemia, or severe side effects from dobutamine. Data from all stages were analysed off-line as with the resting images. PSV data are expressed as velocity at rest, low dose dobutamine infusion ([…]) and peak dose dobutamine infusion (the last infusion stage before infusion terminated, which may include the addition of atropine).

patients with CHF [5] = assay: Minnesota Living with Heart Failure Questionnaire (MLHFQ); assay type: in vivo, human; conditions: for Minnesota living with heart failure questionnaire score: higher score = poorer quality of life
Method: A standard 21-question MLHFQ was employed to determine if perhexiline affected patient quality of life. This is a well validated measure of symptomatology in heart failure (17) and includes questions to assess the ability to perform activities of daily living as well as questions gauging the severity of symptoms due to heart failure. Each question was scored out of 5. The sum of the scores were calculated where a higher score indicated a poorer quality of life. All patients completed the questionnaires alone and without assistance. […] The primary end-point for this study was pre-defined as VO2 max with the following secondary endpoints: MLHFQ score, LVEF, E:EA ratio, resting, low dose and high dose mean PSV during stress echocardiography and PCr t½. Therapy randomization of the ischemic and non-ischemic groups occurred separately but with similar protocols in order to allow for pre-hoc analysis of the primary endpoint in each group. […] Data were analyzed with SPSS 11.5 for Windows® and expressed as mean±standard error of mean. ANCOVA using baseline values as covariates was performed to test for significance of differences seen in the perhexiline vs. placebo groups following treatment.

patients with CHF [6] = assay: Safety and tolerability in the 8-week study (side effects, corrected QT, liver function, neuropathy)
Method: Following baseline studies, patients were randomized in a double-blind fashion to receive either perhexiline (n=28) or placebo (n=28) 100 mg twice daily. Blood was obtained at 1, 4, and 8 weeks after initiation of the drug for measurements of serum perhexiline levels with subsequent dose titration in order to prevent toxicity. Dose adjustments were advised as per a standard protocol by an unblinded physician. Identical dosage adjustments were also made for randomly allocated placebo-treated patients by the unblinded observer in order to ensure blinding of the investigators was maintained. After 8 weeks of treatment, patients were re-evaluated as above.

[7] = Post, after 8 weeks of treatment
[8] = all patients of the perhexiline group, 8 weeks

C1CCC(C(CC2CCCCN2)C2CCCCC2)CC1 (centres unmarked) [Perhexiline, 2-(2,2-dicyclohexylethyl)piperidine]
concentration at 1 week (Serum perhexiline levels; Week 1, 100 mg twice daily with dose titration): 570 ± 190 ng/mL
concentration at 4 weeks (Serum perhexiline levels; Week 4, 100 mg twice daily with dose titration): 670 ± 200 ng/mL
concentration at 8 weeks (Serum perhexiline levels; Week 8, 100 mg twice daily with dose titration): 430 ± 120 ng/mL
NYHA Class (patients with CHF [1]; Post, after 8 weeks): 1.9 ± 0.2^+
NYHA Class (patients with CHF [1]; Pre (baseline)): 2.4 ± 0.1
increase of mean LVEF following treatment (patients with CHF [2]; 8 weeks): 9.9 ± 2.0 absolute percentage points
relative increase of mean LVEF (patients with CHF [2]; 8 weeks): 42%
E:EA Ratio (patients with CHF [2]; Post, after 8 weeks): 6.5 ± 0.9
Left ventricular ejection fraction (patients with CHF [2]; Post, after 8 weeks): 34 ± 2 %
Left ventricular end-diastolic volume (patients with CHF [2]; Post, after 8 weeks): 212 ± 9 mL
Left ventricular end-systolic volume (patients with CHF [2]; Post, after 8 weeks): 140 ± 8 mL
Long axis function (patients with CHF [2]; Post, after 8 weeks): 7.2 ± 0.6^|| cm/s
E:EA Ratio (patients with CHF [2]; Pre (baseline)): 8.6 ± 0.6
Left ventricular ejection fraction (patients with CHF [2]; Pre (baseline)): 24 ± 1%
Left ventricular end-diastolic volume (patients with CHF [2]; Pre (baseline)): 232 ± 11 mL
Left ventricular end-systolic volume (patients with CHF [2]; Pre (baseline)): 176 ± 8 mL
Long axis function (patients with CHF [2]; Pre (baseline)): 5.8 ± 0.4 cm/s
Exercise Time (patients with CHF [3]; [7]): 12.3 ± 1.1 min
VO2max (patients with CHF [3]; [7]): 18.8 ± 1.1 mL/min/kg
Exercise Time (patients with CHF [3]; Pre (baseline)): 10.5 ± 1.2 min
VO2max (patients with CHF [3]; Pre (baseline), perhexiline group): 16.1 ± 0.6 mL/min/kg
increase in VO2 max following treatment (patients with CHF [3]; [8]): 2.7 ± 0.8 mL/min/kg
increase in VO2 max following treatment (relative) (patients with CHF [3]; [8]): 16.7%
increase in VO2 max (patients with CHF [3]; ischemic group, 8 weeks): 2.9 ± 1.2 mL/min/kg
increase in VO2 max (patients with CHF [3]; non-ischemic group, 8 weeks): 2.5 ± 0.4 mL/min/kg
Mean PSV (15 segments) ([4]; Low Dose dobutamine, Post): 5.0 ± 0.5
Mean PSV (15 segments) ([4]; Low Dose dobutamine, Pre): 4.7 ± 0.3
Mean PSV (15 segments) ([4]; Peak Dose dobutamine, Post): 8.2 ± 0.8
Mean PSV (15 segments) ([4]; Peak Dose dobutamine, Pre): 6.6 ± 0.5
Mean PSV (15 segments) ([4]; Rest, Post): 3.8 ± 0.2
Mean PSV (15 segments) ([4]; Rest, Pre): 3.3 ± 0.2
increase in peak dose PSV ([4]; ischemic cohort, peak dose dobutamine, 8 weeks): 24%
increase in resting mean PSV following treatment ([4]; ischemic cohort, rest, 8 weeks): 15%
reduction of MLHFQ scores following treatment (patients with CHF [5]; 8 weeks): 24.4%
Minnesota living with heart failure questionnaire score (patients with CHF [5]; Post, after 8 weeks): 34 ± 5
Minnesota living with heart failure questionnaire score (patients with CHF [5]; Pre (baseline)): 45 ± 5
deaths during the study period (patients with CHF [6]; 8-week course): no deaths in either group
Corrected QT Interval (patients with CHF [6]; Post, after 8 weeks): 413 ± 13 ms
Corrected QT Interval (patients with CHF [6]; Pre (baseline)): 413 ± 11 ms
Side effects (patients with CHF [6]; perhexiline group, 8-week course): restricted to transient nausea and dizziness during the first week of treatment
abnormal liver function tests or neuropathy (patients with CHF [6]; with close serum level monitoring and titration): None of the patients in this study developed abnormal liver function tests or neuropathy
